Reference: the pKa sets of Baltruschat and Czodrowski (2020)

details: acidic group

Row | SMILES | pKa
1 | COCc1ccccc1C(=O)O | 3.85
2 | CS(=O)(=O)Nc1ccc(CC([NH3+])C(=O)O)cc1 (centres undefined) | 3.15
3 | [NH3+]C(c1cccc(O)c1[O-])P(=O)([O-])[O-] (centres undefined) | 12.4
4 | Oc1ccc2cccnc2c1 | 8.85
5 | CCc1cc([N+](=O)[O-])cc(CC)c1O | 7.73
6 | CC(C)(/C=C/C(=O)O)c1cc([N+](=O)[O-])ccc1O | 4.26
7 | Cc1c[n+]([C@@H]2C[C@@H](O)[C@H](CO)O2)c(O)nc1NCCc1ccccc1 | 3.83
8 | CN(C)c1ccc(NC=S)cc1 | 12
9 | O=S1(=O)OC(c2cc(Br)c(O)c(Br)c2)(c2cc(Br)c(O)c(Br)c2)c2ccccc21 | 4.2
10 | CCNC(=O)/C=C(/[70SH])c1ccccc1 | 4.73
11 | O=C(O)c1cc(O)c(O)c(C(=O)O)[o+]1 | 0.6
12 | Oc1cc[nH+]c(O)c1 | 1.37
13 | CC(C)(C)P(=O)(O)C(C)(C)C | 4.24
14 | CC[NH+](CC)Cc1cc(Br)ccc1O | 7.7
15 | O=C(O)C1CCCOC1 (centres undefined) | 4.25
16 | C[N+](C)(C)CCC[N+](C)(C)CCCNC(=O)/C=N/O | 8.31
17 | Cc1nonc1NS(=O)(=O)c1ccc(N)cc1 | 4
18 | COc1cc2c(O)cc(C)[nH+]c2c2c(C)c(C)oc12 | 2.91
19 | O=P1(O)CCCC1 | 2.51
20 | COc1cc(C(C)=O)ccc1O | 7.65
21 | CCC[n+]1cccc2cc(O)ccc21 | 7.08

Row | SMILES | pKa
22 | CCC#CC#CC#CC(=O)O | 1.67
23 | C[N+]1(CC(=O)O)CCCCC1 | 2.01
24 | O=C(O)[C@@H]1CSC[NH2+]1 | 1.58
25 | CC1(C)[C@@H]2CC[C@](C(=O)O)(C2)[C@H]1O | 5.05
26 | CO/C([O-])=N/c1ncnc2nc[nH]c12 | 12.1
27 | C[S+](C)CC(=O)c1ccccc1 | 8.6
28 | Nc1ccc2cn[nH]c2c1 | 14.3
29 | COc1ccc(NC(=S)c2ccccc2)cc1 | 11.4
30 | O=C(O)c1ccc(O)cc1 | 4.57
31 | CCCCC#CC(=O)O | 2.61
32 | Cc1cc(O)ccc1[S+](C)C | 7.6
33 | CC(C)(C)C1C(=O)NC(=O)NC1=O | 7.98
34 | C/C(=C\c1ccccc1)CC(=O)O | 5.35
35 | C=CCC1(C2C=CCCC2)C(=O)NC(=S)NC1=O (centres undefined) | 7.25
36 | Oc1cccc2c1-c1cccc(O)c1-2 | 8.35
37 | CO[n+]1ccccc1O | -1.3
38 | COc1ccc(S(=O)(=O)Nc2ccccc2)cc1 | 8.66
39 | O=C(/C=N/O)/C=N/O | 7.65
40 | Cc1nc2c(n1C)C(=O)c1nc[nH+]c(O)c1C2=O | 1.15
41 | O=C(O)C[C@]1(O)C[C@@H]2C=C[C@H]1C2 | 4.36
42 | N#Cc1c(-c2nc3ccccc3o2)c(=O)oc2cc(O)ccc12 | 6.07

Row | SMILES | pKa
43 | O=C(O)c1cccc(O)c1 | 4.07
44 | CO | 15.5
45 | Oc1ccc2ccc3ccccc3c2c1 | 9.28
46 | CC(C)CC([NH3+])C(=O)O (centres undefined) | 2.46
47 | N#CC(C#N)=C(C#N)Nc1cccc([N+](=O)[O-])c1 | 3.45
48 | CC(C)[C@H]1C[NH2+][C@H](C(=O)O)[C@H]1CC(=O)O | 2.12
49 | CC(C)(C(=O)O)C(C#N)c1ccccc1 (centres undefined) | 3.95
50 | OB1OCc2ccccc21 | 7.38
51 | Oc1ccc2ccnnc2c1 | 7.56
52 | C[C@@H]1CC[C@H](C)[C@@H]1C(=O)O | 5.4
53 | O=C(O)[C@@H]1C[C@@H]1c1ccccc1 | 4.82
54 | COCCO | 14.9
55 | CN(O)C(=O)c1ccccc1 | 8.07
56 | OCCO | 14
57 | O=[N+]([O-])/C(=N/O)c1ccc(Cl)cc1 | 6.6
58 | C[S+](C)c1cccc(O)c1 | 7.67
59 | O=[N+]([O-])c1ccc(/C=N/O)cc1 | 10
60 | C[NH+](C)CCc1cccc(O)c1 | 9.24
61 | COc1ccc2c(c1O)-c1c3c(cc4c1[C@H](C2)N(C)CC4)OCO3 | 10.1
62 | COc1ccc(O)c(C[NH2+]C(CO)C(=O)O)c1 (centres undefined) | 2.1
63 | O=C(O)c1cccc(Cl)c1 | 3.8

Row | SMILES | pKa
64 | O=c1[nH]c2ccccc2[nH]c1=O | 9.67
65 | CN(C)c1cccc2c(S(=O)(=O)NCC(=O)[O-])cccc12 | 11.7
66 | [S-]c1ncc2nc[nH]c2n1 | 10.4
67 | CCN(CC)CC(=N\[O-])/C(C)=N/O | 11.9
68 | [O-]c1ccc2ccccc2[n+]1O | 6.88
69 | N#Cc1ncnc2nc[nH]c12 | 6.88
70 | O=C(O)[C@H]1C[C@@H]1c1cccc([N+](=O)[O-])c1 | 4.41
71 | CN(C)c1cccc(NC=S)c1 | 11.8
72 | CCCc1c(C)[nH][n+](C)c1[O-] | 10.5
73 | CCCSCC(=O)O | 3.77
74 | Cc1ccc(NC(=S)c2ccc(Cl)cc2)cc1 | 11.2
75 | CC/N=C(\N=[N+]=[N-])c1ccccc1O | 9.4
76 | O=Cc1ccccc1C(=O)O | 4.56
77 | N#Cc1ccccc1-c1nnn[nH]1 | 3.55
78 | CC(C)P(=O)(O)C(C)C | 3.56
79 | O=S(=O)([O-])c1cc(O)c2cn[nH]c2c1 | 8.1
80 | CC1SC(C)(C(=O)O)OC1=O (centres undefined) | 1.94
81 | Nc1nc[nH]n1 | 10.7
82 | c1cc[n+]2c(c1)C[n+]1ccccc1C2 | 8.12
83 | NNC(=O)C(F)(F)C(F)(F)C(F)(F)F | 8.02
84 | COP(=O)([O-])NS(=O)(=O)c1ccccc1 | 6.25
